Experimental data taken from PubChem BioAssay AID2060603 (Molecular Pharmacology Branch, DTP, NCI, 2025).
pIC50: −log10 of the molar value.

Test system: 422866-222-R5-J1-PDC spheroid viability
Test: Anticancer human tumor 422866-222-R5-J1-PDC patient-derived pancreatic adenocarcinoma cell line growth inhibition [CLK]
Conditions: spheroids with HUVEC and MSC; for pIC50: curve of first compound; for viability, T/C: stronger effect = lower value
Outline: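 Patient-derived tumor cells grown as complex spheroids with HUVEC endothelial cells and mesenchymal stem cells, treated with drug combinations. Concentrations descend in half-log steps from near clinical Cmax, or from 10 microM if Cmax unknown.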
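Note: spheroids exposed to agents for seven days before readout.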

`C=CC(=O)Nc1cc(Nc2nccc(-c3cn(C)c4ccccc34)n2)c(OC)cc1N(C)CCN(C)C` + CNC(=O)c1ccc(Nc2nc(OC3CCCC3)c3c(-c4ccc5nc(C)oc5c4)c[nH]c3n2)c(OC)c1 was tested, and the pIC50 (second compound 0.0316 µM) was < 6.52, the pIC50 (second compound 0.1 µM) was < 6.52 and the pIC50 (second compound 0.316 µM) was < 6.52. For the same compound, the pIC50 (second compound 1 µM) was < 6.52, the pIC50 (second compound 3.16 µM) was < 6.52 and the pIC50 (second compound 10 µM) was < 6.52. It also gave a viability, T/C (second compound 0.0316 µM, first compound 0.000949 µM) of 98.9%, a viability, T/C (second compound 0.0316 µM, first compound 0.003 µM) of 98.2% and a viability, T/C (second compound 0.0316 µM, first compound 0.00949 µM) of 85.4%. The viability, T/C (second compound 0.0316 µM, first compound 0.03 µM) was 79.2%, the viability, T/C (second compound 0.0316 µM, first compound 0.0949 µM) was 69.7% and the viability, T/C (second compound 0.0316 µM, first compound 0.3 µM) was 77.1%. The viability, T/C (second compound 0.1 µM, first compound 0.000949 µM) was 103%, the viability, T/C (second compound 0.1 µM, first compound 0.003 µM) was 82.9% and the viability, T/C (second compound 0.1 µM, first compound 0.00949 µM) was 74.5%. It also gave a viability, T/C (second compound 0.1 µM, first compound 0.03 µM) of 71.8%, a viability, T/C (second compound 0.1 µM, first compound 0.0949 µM) of 70.7% and a viability, T/C (second compound 0.1 µM, first compound 0.3 µM) of 57.1%. It also gave a viability, T/C (second compound 0.316 µM, first compound 0.000949 µM) of 66.3%, a viability, T/C (second compound 0.316 µM, first compound 0.003 µM) of 73.5% and a viability, T/C (second compound 0.316 µM, first compound 0.00949 µM) of 68%. The viability, T/C (second compound 0.316 µM, first compound 0.03 µM) was 58.7%, the viability, T/C (second compound 0.316 µM, first compound 0.0949 µM) was 59.2% and the viability, T/C (second compound 0.316 µM, first compound 0.3 µM) was 60.7%. The viability, T/C (second compound 1 µM, first compound 0.000949 µM) was 60.8%, the viability, T/C (second compound 1 µM, first compound 0.003 µM) was 65.8% and the viability, T/C (second compound 1 µM, first compound 0.00949 µM) was 60.9%. For the same compound, the viability, T/C (second compound 1 µM, first compound 0.03 µM) was 65.5%, the viability, T/C (second compound 1 µM, first compound 0.0949 µM) was 59.3% and the viability, T/C (second compound 1 µM, first compound 0.3 µM) was 54.8%. The viability, T/C (second compound 3.16 µM, first compound 0.000949 µM) was 52.8%, the viability, T/C (second compound 3.16 µM, first compound 0.003 µM) was 61.6% and the viability, T/C (second compound 3.16 µM, first compound 0.00949 µM) was 60.4%. It also gave a viability, T/C (second compound 3.16 µM, first compound 0.03 µM) of 56.4%, a viability, T/C (second compound 3.16 µM, first compound 0.0949 µM) of 62.7% and a viability, T/C (second compound 3.16 µM, first compound 0.3 µM) of 54.9%. It also gave a viability, T/C (second compound 10 µM, first compound 0.000949 µM) of 69.6%, a viability, T/C (second compound 10 µM, first compound 0.003 µM) of 68.8% and a viability, T/C (second compound 10 µM, first compound 0.00949 µM) of 63.5%. For the same compound, the viability, T/C (second compound 10 µM, first compound 0.03 µM) was 62.4%, the viability, T/C (second compound 10 µM, first compound 0.0949 µM) was 55.6% and the viability, T/C (second compound 10 µM, first compound 0.3 µM) was 51.7%.

With `CCN1CCN(Cc2ccc(Nc3ncc(F)c(-c4cc(F)c5nc(C)n(C(C)C)c5c4)n3)nc2)CC1` + CNC(=O)c1ccc(Nc2nc(OC3CCCC3)c3c(-c4ccc5nc(C)oc5c4)c[nH]c3n2)c(OC)c1 the pIC50 (second compound 0.0316 µM) was < 6.00, the pIC50 (second compound 0.1 µM) was < 6.00 and the pIC50 (second compound 0.316 µM) was < 6.00. The pIC50 (second compound 1 µM) was < 6.00, the pIC50 (second compound 3.16 µM) was < 6.00 and the pIC50 (second compound 10 µM) was < 6.00. It also gave a viability, T/C (second compound 0.0316 µM, first compound 0.00316 µM) of 96.2%, a viability, T/C (second compound 0.0316 µM, first compound 0.01 µM) of 111% and a viability, T/C (second compound 0.0316 µM, first compound 0.0316 µM) of 79%. For the same compound, the viability, T/C (second compound 0.0316 µM, first compound 0.1 µM) was 73.5%, the viability, T/C (second compound 0.0316 µM, first compound 0.316 µM) was 80.9% and the viability, T/C (second compound 0.0316 µM, first compound 1 µM) was 96.2%. For the same compound, the viability, T/C (second compound 0.1 µM, first compound 0.00316 µM) was 81.5%, the viability, T/C (second compound 0.1 µM, first compound 0.01 µM) was 84.5% and the viability, T/C (second compound 0.1 µM, first compound 0.0316 µM) was 72.1%. It also gave a viability, T/C (second compound 0.1 µM, first compound 0.1 µM) of 64.4%, a viability, T/C (second compound 0.1 µM, first compound 0.316 µM) of 77.5% and a viability, T/C (second compound 0.1 µM, first compound 1 µM) of 88.9%. It also gave a viability, T/C (second compound 0.316 µM, first compound 0.00316 µM) of 67.5%, a viability, T/C (second compound 0.316 µM, first compound 0.01 µM) of 58.9% and a viability, T/C (second compound 0.316 µM, first compound 0.0316 µM) of 60.5%. It also gave a viability, T/C (second compound 0.316 µM, first compound 0.1 µM) of 59.3%, a viability, T/C (second compound 0.316 µM, first compound 0.316 µM) of 65.3% and a viability, T/C (second compound 0.316 µM, first compound 1 µM) of 71.9%. The viability, T/C (second compound 1 µM, first compound 0.00316 µM) was 72%, the viability, T/C (second compound 1 µM, first compound 0.01 µM) was 62.8% and the viability, T/C (second compound 1 µM, first compound 0.0316 µM) was 59.2%. The viability, T/C (second compound 1 µM, first compound 0.1 µM) was 47.9%, the viability, T/C (second compound 1 µM, first compound 0.316 µM) was 62.8% and the viability, T/C (second compound 1 µM, first compound 1 µM) was 65.6%. It also gave a viability, T/C (second compound 3.16 µM, first compound 0.00316 µM) of 65.2%, a viability, T/C (second compound 3.16 µM, first compound 0.01 µM) of 51.5% and a viability, T/C (second compound 3.16 µM, first compound 0.0316 µM) of 56.2%. The viability, T/C (second compound 3.16 µM, first compound 0.1 µM) was 56.2%, the viability, T/C (second compound 3.16 µM, first compound 0.316 µM) was 66.5% and the viability, T/C (second compound 3.16 µM, first compound 1 µM) was 67.9%. For the same compound, the viability, T/C (second compound 10 µM, first compound 0.00316 µM) was 54.6%, the viability, T/C (second compound 10 µM, first compound 0.01 µM) was 62.1% and the viability, T/C (second compound 10 µM, first compound 0.0316 µM) was 54.5%. For the same compound, the viability, T/C (second compound 10 µM, first compound 0.1 µM) was 58.6%, the viability, T/C (second compound 10 µM, first compound 0.316 µM) was 63.2% and the viability, T/C (second compound 10 µM, first compound 1 µM) was 74.2%.
